Results as given in patent US9073819B2, “Compositions, methods of use, and methods of treatment” (UNIVERSITY OF SOUTH FLORIDA, priority 2011, dated 2015).

Legend:
[1] = molecular target: NMDA-D (NR1/2D) receptors (Homo sapiens, UniProt O15399+Q05586); test: Antagonist activity on NMDA receptors (current blockade and recovery)
GABAa receptors = test: Agonist activity on GABAa receptors, subtype not separated in the text; format: cell-based; conditions: for potentiation of GABAA current / response from GABAa receptors, in words: relative to ketamine, various concentrations
Description: (§1) The GABAa subtypes α6β2δ and α1β2γ2 receptors are expressed at high levels exclusively within mature cerebellar granule neurons.
(§2) The ketamine analogues were tested for agonist activities at GABAa receptors both in the presence and absence of GABA (FIGS. 13-16). […] Oxime 2 was prepared both as a mono-salt and di-salt.

[2] = molecular target: NMDA-A (NR1/2A) receptors (Homo sapiens, UniProt Q05586+Q12879); test: Antagonist activity on NMDA receptors (current blockade and recovery)
[3] = molecular target: NMDA-B (NR1/2B) receptors (Homo sapiens, UniProt Q05586+Q13224); test: as above
[4] = system: α6- and δ-containing GABAa receptors; conditions: within anesthetically relevant concentration; cited from earlier work
mice = conditions: not significant when compared with ketamine; cited from earlier work
[5] = system: NMDA receptors with NR2-A and NR2-B subunits; conditions: cited from earlier work
α6β2δ GABAa receptors = molecular target: T1, α6β2δ GABAa receptors (Homo sapiens, UniProt O14764+P47870+Q16445); test: Agonist activity of ketamine analogues on GABAa receptors (potentiation of GABA current, oocyte expression system); format: cell-based
T1 construct: expressed in transfected cells
Description: as §1, §2

rats [6] = test: Tail suspension model of depression in rats; format: in vivo; conditions: 5 mg/kg, tail suspension for 12 minutes
Description: Rats were dosed with ketamine oxime disalt and then tested in a model of depression. FIG. 24 illustrates an analysis of the antidepressant effects of ketamine and the oxime analogue at 5 mg/kg in rats undergoing tail suspension for 12 minutes. Note that immobility, giving up the struggle, is a sign of depression in this model. […] V is vehicle, A is ketamine, B is ketamine oxime analogue.

α1β2γ2 GABAa receptors = molecular target: T2, α1β2γ2 GABAa receptors (Homo sapiens, UniProt P14867+P18507+P47870); test: Agonist activity of ketamine analogues on GABAa receptors (potentiation of GABA current, oocyte expression system); format: cell-based; conditions: for potentiation of GABAa current, in words: 20 μM
T2 construct: expressed in transfected cells
Description: as §1, §2

[7] = Lipophilicity relative to ketamine; format: physicochemical
NMDA-NR1/2C receptors = NMDA-NR1/2C receptors (Homo sapiens, UniProt Q05586+Q14957); test: Antagonist activity on NMDA receptors (current blockade and recovery); format: cell-based; conditions: concentrations 0.1 to 200 μM
NMDA receptors = test: NMDA receptor blockade and recovery, subtypes not separated in the text; format: cell-based; conditions: compared with ketamine
rats [8] = test: Dose response study of motor coordination in rats (open field behavior); format: in vivo
Description: The effect of ketamine oxime disalt on motor coordination in rats was evaluated.

[9] = NMDA-B (NR1/2B), drug concentration 50 μM, current post drug treatment
[10] = NMDA-D (NR1/2D), drug concentration 50 μM, current post drug treatment
[11] = NMDA-NR1/2D, affinity study, concentrations 0.1 to 200 μM
[12] = NMDA-A (NR1/2A), drug concentration 50 μM, current post drug treatment
[13] = NMDA-NR1/2A, affinity study, concentrations 0.1 to 200 μM
[14] = NMDA-NR1/2B, affinity study, concentrations 0.1 to 200 μM

Chain of NMDA-A (NR1/2A) receptors (Q12879 23-1464, other chains not shown): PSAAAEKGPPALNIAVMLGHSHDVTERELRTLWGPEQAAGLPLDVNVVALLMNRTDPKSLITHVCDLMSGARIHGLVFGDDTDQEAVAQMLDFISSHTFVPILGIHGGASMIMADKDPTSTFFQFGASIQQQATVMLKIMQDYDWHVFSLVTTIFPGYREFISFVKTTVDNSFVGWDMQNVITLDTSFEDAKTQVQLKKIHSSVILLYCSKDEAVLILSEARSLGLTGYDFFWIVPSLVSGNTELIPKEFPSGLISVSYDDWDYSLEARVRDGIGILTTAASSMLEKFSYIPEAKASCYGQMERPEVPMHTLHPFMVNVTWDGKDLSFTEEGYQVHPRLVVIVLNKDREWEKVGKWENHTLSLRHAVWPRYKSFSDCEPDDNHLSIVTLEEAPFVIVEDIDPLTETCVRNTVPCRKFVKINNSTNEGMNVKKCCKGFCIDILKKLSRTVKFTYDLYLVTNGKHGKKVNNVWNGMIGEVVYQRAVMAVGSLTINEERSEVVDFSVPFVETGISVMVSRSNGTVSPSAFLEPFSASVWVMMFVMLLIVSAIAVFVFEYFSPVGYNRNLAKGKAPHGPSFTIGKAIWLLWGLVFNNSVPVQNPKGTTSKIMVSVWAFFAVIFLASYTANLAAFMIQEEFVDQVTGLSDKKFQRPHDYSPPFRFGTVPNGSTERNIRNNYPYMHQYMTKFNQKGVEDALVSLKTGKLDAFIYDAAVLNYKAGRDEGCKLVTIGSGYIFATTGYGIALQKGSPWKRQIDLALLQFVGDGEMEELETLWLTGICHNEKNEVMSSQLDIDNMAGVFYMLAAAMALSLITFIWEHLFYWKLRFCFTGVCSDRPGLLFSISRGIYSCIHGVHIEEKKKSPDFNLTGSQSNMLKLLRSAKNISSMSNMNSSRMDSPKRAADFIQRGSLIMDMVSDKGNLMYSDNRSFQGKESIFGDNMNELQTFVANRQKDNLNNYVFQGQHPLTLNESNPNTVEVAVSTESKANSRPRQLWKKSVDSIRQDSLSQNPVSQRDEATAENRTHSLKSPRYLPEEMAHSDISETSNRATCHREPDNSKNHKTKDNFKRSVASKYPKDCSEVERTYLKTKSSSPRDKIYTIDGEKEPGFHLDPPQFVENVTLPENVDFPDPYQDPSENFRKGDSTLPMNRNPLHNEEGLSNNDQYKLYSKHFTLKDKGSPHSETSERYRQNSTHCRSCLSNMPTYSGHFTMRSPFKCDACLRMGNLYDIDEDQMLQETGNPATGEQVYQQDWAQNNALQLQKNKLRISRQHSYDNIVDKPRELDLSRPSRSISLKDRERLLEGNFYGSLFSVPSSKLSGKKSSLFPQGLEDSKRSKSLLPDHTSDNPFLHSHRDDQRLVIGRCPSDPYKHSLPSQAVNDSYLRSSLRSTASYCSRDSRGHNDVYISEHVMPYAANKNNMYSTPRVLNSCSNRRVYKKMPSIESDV
Chain of NMDA-B (NR1/2B) receptors (Q13224 27-1484, other chains not shown): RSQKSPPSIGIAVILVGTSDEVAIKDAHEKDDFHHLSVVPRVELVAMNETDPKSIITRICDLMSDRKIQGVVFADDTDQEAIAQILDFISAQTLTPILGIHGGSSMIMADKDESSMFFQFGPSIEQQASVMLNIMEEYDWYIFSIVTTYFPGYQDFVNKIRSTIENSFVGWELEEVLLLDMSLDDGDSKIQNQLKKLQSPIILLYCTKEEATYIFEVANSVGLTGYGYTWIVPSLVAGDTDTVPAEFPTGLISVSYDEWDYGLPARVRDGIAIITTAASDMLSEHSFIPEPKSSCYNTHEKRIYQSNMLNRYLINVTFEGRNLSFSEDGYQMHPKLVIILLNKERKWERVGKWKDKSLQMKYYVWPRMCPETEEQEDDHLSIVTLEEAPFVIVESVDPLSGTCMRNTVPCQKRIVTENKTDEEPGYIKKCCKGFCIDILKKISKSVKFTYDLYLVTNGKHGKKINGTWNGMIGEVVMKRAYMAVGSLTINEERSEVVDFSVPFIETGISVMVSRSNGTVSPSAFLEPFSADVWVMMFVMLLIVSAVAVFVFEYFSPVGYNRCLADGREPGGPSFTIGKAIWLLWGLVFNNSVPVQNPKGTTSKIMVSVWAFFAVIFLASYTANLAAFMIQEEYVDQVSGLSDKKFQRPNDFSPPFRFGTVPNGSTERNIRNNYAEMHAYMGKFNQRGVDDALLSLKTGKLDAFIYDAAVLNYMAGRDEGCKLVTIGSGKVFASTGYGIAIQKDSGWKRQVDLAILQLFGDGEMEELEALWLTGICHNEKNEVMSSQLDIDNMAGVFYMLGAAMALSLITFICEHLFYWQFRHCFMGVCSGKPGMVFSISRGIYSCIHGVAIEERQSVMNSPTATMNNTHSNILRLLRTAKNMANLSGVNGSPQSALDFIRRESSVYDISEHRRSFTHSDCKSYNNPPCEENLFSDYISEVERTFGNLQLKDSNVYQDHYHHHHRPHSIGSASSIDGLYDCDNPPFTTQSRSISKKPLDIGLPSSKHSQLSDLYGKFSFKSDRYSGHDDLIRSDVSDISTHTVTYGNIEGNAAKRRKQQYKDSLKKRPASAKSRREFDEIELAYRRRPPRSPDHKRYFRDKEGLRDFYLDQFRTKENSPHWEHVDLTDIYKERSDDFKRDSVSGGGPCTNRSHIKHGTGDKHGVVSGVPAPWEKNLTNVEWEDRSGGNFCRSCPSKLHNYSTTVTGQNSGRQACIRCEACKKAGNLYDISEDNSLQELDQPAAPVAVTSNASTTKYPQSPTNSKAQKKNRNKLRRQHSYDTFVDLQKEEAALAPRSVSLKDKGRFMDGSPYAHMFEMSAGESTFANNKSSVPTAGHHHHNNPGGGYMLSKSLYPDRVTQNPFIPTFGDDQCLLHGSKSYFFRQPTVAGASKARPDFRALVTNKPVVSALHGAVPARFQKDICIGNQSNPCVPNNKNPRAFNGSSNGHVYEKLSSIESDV
Chain of NMDA-D (NR1/2D) receptors (O15399 28-1336, other chains not shown): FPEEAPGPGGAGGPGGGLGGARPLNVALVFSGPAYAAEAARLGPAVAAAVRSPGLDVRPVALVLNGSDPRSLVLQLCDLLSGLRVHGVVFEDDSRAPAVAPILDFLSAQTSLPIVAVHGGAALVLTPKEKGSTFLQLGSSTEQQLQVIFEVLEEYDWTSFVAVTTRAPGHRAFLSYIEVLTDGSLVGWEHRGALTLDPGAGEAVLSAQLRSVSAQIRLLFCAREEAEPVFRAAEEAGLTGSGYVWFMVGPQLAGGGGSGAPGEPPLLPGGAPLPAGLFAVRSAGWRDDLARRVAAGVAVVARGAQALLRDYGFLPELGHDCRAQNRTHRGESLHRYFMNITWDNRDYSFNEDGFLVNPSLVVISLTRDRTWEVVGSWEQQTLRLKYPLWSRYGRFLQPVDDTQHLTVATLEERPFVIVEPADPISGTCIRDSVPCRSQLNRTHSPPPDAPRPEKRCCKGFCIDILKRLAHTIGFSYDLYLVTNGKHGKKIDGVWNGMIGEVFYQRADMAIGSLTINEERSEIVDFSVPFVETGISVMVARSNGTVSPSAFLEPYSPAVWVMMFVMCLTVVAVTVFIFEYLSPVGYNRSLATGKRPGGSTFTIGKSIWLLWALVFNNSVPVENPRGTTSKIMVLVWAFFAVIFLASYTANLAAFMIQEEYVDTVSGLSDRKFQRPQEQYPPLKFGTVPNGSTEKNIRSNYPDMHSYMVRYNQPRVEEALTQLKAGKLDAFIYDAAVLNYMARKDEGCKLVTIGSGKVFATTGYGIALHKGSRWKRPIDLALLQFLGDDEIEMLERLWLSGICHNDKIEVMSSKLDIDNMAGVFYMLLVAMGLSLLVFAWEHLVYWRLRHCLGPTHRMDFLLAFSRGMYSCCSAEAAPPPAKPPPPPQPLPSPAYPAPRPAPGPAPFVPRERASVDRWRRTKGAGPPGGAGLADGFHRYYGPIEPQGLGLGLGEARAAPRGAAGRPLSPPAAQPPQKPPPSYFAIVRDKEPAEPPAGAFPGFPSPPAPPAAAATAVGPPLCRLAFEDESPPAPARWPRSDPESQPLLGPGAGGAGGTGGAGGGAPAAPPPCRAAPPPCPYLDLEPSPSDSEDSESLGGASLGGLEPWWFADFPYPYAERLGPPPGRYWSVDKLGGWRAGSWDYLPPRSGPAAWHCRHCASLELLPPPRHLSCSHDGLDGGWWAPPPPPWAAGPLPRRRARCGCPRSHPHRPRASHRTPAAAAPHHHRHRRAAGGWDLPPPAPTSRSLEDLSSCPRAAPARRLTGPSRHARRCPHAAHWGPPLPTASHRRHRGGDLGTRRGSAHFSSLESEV

Structure (SMILES)	inhibition at 50 µM [1] [%]	potentiation of GABAA current / response from GABAa receptors, in words (GABAa receptors)	inhibition at 50 µM [2] [%]	inhibition at 50 µM [3] [%]	% Recovery [3, 9] [%]	IAverage = (IGABA + Drug/IGABA) 100 (α6β2δ GABAa receptors; Conc. 10 (μM)) [n. amp]	IAverage = (IGABA + Drug/IGABA) 100 (α6β2δ GABAa receptors; Conc. 20 (μM)) [n. amp]	IAverage = (IGABA + Drug/IGABA) 100 (α6β2δ GABAa receptors; Conc. 50 (μM)) [n. amp]	% Recovery [1, 10] [%]	% Recovery [2, 12] [%]	further results
CNC1(c2ccccc2Cl)CCCC/C1=N\NC(N)=O (stereo not drawn) [Semicarbazone, 2-(2-Chloro-phenyl)-2-methylamino-cyclohexanone O-semicarbazone]	33.3	less sensitive than ketamine	33.6	50.8	98.484	–	–	–	–	–	–
C[C@]12N[C@H](Cc3ccccc31)c1ccccc12 [Mk-801]	–	–	–	–	–	–	–	–	–	–	potentiation of GABA / tonic chloride current [4]: less active compared to ketamine
CC1(N)CCc2ccccc2C1=O (stereo not drawn) [2-amino-2-methyl-1-tetralone]	–	–	–	–	–	–	–	–	–	–	locomotor activity (mice): increased locomotor activity
CNC1(c2ccc(OC)cc2Cl)CCCCC1=O (stereo not drawn) [G]	–	–	–	–	–	–	–	–	–	–	functional activity in comparison to ketamine [5]: appreciable activity
CNC1(c2ccccc2Cl)CCCCC1O (stereo not drawn) [Hydroxy, 2-(2-Chloro-phenyl)-2-methylamino-cyclohexanol]	–	less sensitivity than ketamine	–	–	–	100	100	123.98	–	–	IAverage = (IGABA + Drug/IGABA) 100 (α6β2δ GABAa receptors; Conc. 100 (μM)): 135.41 n. amp
CNC1(c2ccccc2Cl)CCCCC1=O (stereo not drawn) [Ketamine, reference compound]	88.1	–	57.6	80.5	34.564	116.2	157.1	218.3	26.19	84.745	IC50 [1]: 0.76 µM; % Recovery [1, 11]: 24%; immobility in tail suspension, overall versus saline (rats [6]): No significant differences; IC50 [2]: 2.32 µM; % Recovery [2, 13]: 28%; potentiation of GABA / tonic chloride current [4]: potentiated the GABA current; IC50 [3]: 0.82 µM; % Recovery [3, 14]: 19%; potentiation of GABAa current, in words (α1β2γ2 GABAa receptors): not able to potentiate any current; IAverage = (IGABA + Drug/IGABA) 100 (α1β2γ2 GABAa receptors; Conc. 20 (μM)): 0 n. amp; IAverage = (IGABA + Drug/IGABA) 100 (α1β2γ2 GABAa receptors; Conc. 50 (μM)): 105 n. amp; IAverage = (IGABA + Drug/IGABA) 100 (α1β2γ2 GABAa receptors; Conc. 100 (μM)): 119 n. amp
CNC1(c2ccccc2Cl)CCCC/C1=N\OCc1ccccc1 (stereo not drawn) [Benzoxime, 2-(2-Chloro-phenyl)-2-methylamino-cyclohexanone O-benzyl-oxime]	49.3	did not evoke considerable response	–	41	77.639	–	–	–	79.452	–	lipophilicity compared to ketamine [7]: increased lipophilicity
CNC1(c2ccccc2Cl)CCCC/C1=N\OC (stereo not drawn) [Methoxime, 2-(2-Chloro-phenyl)-2-methylamino-cyclohexanone O-methyl-oxime]	57.5	did not evoke considerable response	25.3	75.6	71.6417	–	–	–	82.5	98.453	lipophilicity compared to ketamine [7]: increased lipophilicity
CC1(N)C(=O)CCc2ccccc21 (stereo not drawn) [1-amino-1-methyl-2-tetralone]	–	–	–	–	–	–	–	–	–	–	locomotor activity (mice): decreased
CNC1(c2ccccc2Cl)CCCC/C1=N\O (stereo not drawn) [Oxime, 2-(2-Chloro-phenyl)-2-methylamino-cyclohexanone oxime]	86.7	greatly potentiated	89.2	83	33.9622	–	–	–	52.272	86.1538	IC50 [1]: 1.07 µM; % Recovery [1, 11]: 68%; lipophilicity compared to ketamine [7]: reduce lipophilicity; % Recovery (NMDA-NR1/2C receptors; affinity study): 44%; IC50 (NMDA-NR1/2C receptors): 0.747 µM; excitory post synaptic potential relative to ketamine (GABAa receptors; GABAa receptors): two times more excitory post synaptic potential than ketamine; IC50 [2]: 5.91 µM; IC50 versus ketamine ([2]; NMDA-A receptors): two fold higher; % Recovery [2, 13]: 74%; IC50 [3]: 1.07 µM; % Recovery [3, 14]: 31%; lasting effect following wash of the drug (NMDA receptors): less than ketamine
CNC1(c2ccccc2Cl)CCCC/C1=N\O (stereo not drawn) [Oxime (Monosalt), 2-(2-Chloro-phenyl)-2-methylamino-cyclohexanone oxime]	–	–	–	–	–	128.2	193.746	312.04	–	–	–
CNC1(c2ccccc2Cl)CCCC/C1=N\O (stereo not drawn) [Oxime (Disalt), 2-(2-Chloro-phenyl)-2-methylamino-cyclohexanone oxime]	–	–	–	–	–	165.4	239	418	–	–	immobility in tail suspension, overall versus saline (rats [6]): No significant differences; immobility in tail suspension, slope analysis (rats [6]): decreased immobility; effect on motor coordination (open field behavior) (rats [8]; 6 and 12 minute period following injection, dose response): CNS depressant effects; observed behaviour in vivo (rats [8]; at higher doses): loss of equilibrium, unsteady gait and immobility; righting reflex (an indication of anesthesia) (rats [8]; at higher doses): without loss of righting reflex; potentiation of GABAa current, in words (α1β2γ2 GABAa receptors): greatly potentiated; increase in potentiation relative to ketamine (α1β2γ2 GABAa receptors; 100 μM): nearly two fold increase; IAverage = (IGABA + Drug/IGABA) 100 (α1β2γ2 GABAa receptors; Conc. 20 (μM)): 122.678 n. amp; IAverage = (IGABA + Drug/IGABA) 100 (α1β2γ2 GABAa receptors; Conc. 50 (μM)): 153.41 n. amp; IAverage = (IGABA + Drug/IGABA) 100 (α1β2γ2 GABAa receptors; Conc. 100 (μM)): 214.5 n. amp; potentiation of GABAa current, in words (α6β2δ GABAa receptors; 20 μM): greater potentiation; increase in potentiation relative to ketamine (α6β2δ GABAa receptors; 50 μM): nearly two fold increase
c1ccc(C2(N3CCCCC3)CCCCC2)cc1 [PCP, Phencyclidine, reference compound]	87.5	–	88.4	96.8	59.677	–	–	–	66.666	93.953	potentiation of GABA / tonic chloride current [4]: less active compared to ketamine
